Data taken from patent publication US11213509B2, “Compositions and methods for treating traumatic brain injury” (Ischemix, LLC, priority 2017, dated 2022).

Legend:
[1] = tested on: mitochondrial reactive oxygen species generation (mtROS); assay: Mitochondrial reactive oxygen species generation 24 hours post-CCI, focal TBI model in piglets; format: in vivo; conditions: p<0.0001 vs placebo
Protocol: Study Design: A blinded, placebo controlled proof of concept trial of CMX-2043 was conducted in four-week-old piglets (8-10 kg). […] Sixteen piglets (n=16) were designated into three cohorts: 1) Controlled cortical impact (CCI) at the rostral gyrus treated with a bolus of CMX-2043 (n=5), 2) CCI injured animals treated with placebo (n=5) and 3) sham animals (n=6). CMX-2043 treated animals received an intravenous loading bolus of CMX-2043 (13.4 mg/kg) 1 hour post-TBI and a 4.5 mg/kg bolus at 13 hours post-TBI. Subjects were intubated, ventilated and anesthesia maintained on isoflurane (1.0%). Buprenorphine (0.02 mg/kg IM) was administered for analgesia immediately following intubation. Monitors recorded oxygen saturation, heart rate, respiration rate, rectal temperature, and end tidal CO2. […] All piglets were sacrificed between 24-25 hours post-TBI.
Mitochondrial Respiration and ROS Production: Twenty four hours post-CCI the ipsilateral penumbra and mirrored contralateral cortex were harvested. The rate of oxygen consumption was recorded via high-resolution Oroboros Oxygraph-2k™ with a specific Substrate-Uncouple-Inhibitor-Titration Protocol (SUIT). […] Maximal reserve capacity of the electron transfer system (ETSCI+CII) was measured by titrating the protonophore carbonyl cyanide p-(trifluoro-methoxy) phenylhydrazone (FCCP). […]

rat model of focal TBI = assay: Morris water maze, rat model of focal TBI (BCCI); format: in vivo; conditions: for Improvement in escape latency relative to Day 1 / Morris water maze escape latency: 30 mg/kg; for Morris water maze escape latency: vs saline
From the text: BCCI TBI to the medial frontal cortex (MFC) was induced by a cortical contusion device (Custom Design & Fabrication, Inc [CDF], Richmond, Va.). This device creates a reliable contusion injury to the exposed area of the brain with a brass-tipped impounder. (Hoffman et al., 1994). Rats were anesthetized with isoflurane (5%) (Novaplus™), and 02 (300 cm^3/min), and mounted in a stereotaxic frame. Under aseptic conditions, a sagittal incision was made in the scalp and the fascia retracted to expose the cranium. Then, a 6-mm diameter trephine drill was used to open the skull immediately anterior to the bregma. TBI of the MFC was made with a 5-mm-diameter rounded brass impactor attached to a computer-controlled piston propelled electronically with following parameters: velocity=2.5 m/s; depth=3 mm; duration=100 ms). After BCCI, any cortical surface hemorrhaging was controlled and the fascia and scalp sutured. The animals were allowed to recover in a warmed recovery chamber and appropriate post-operative care was taken. Treatment was delivered 30 minutes after injury and at approximately 24 hrs after injury. Two weeks after injury, rats were tested in the Morris water maze (MWM). The MWM is a well-characterized test of spatial learning and memory in rodents. The objective of the MWM is to teach rats that there is an escape platform located somewhere in a large, water filled pool. The rats are naturally motivated to escape the pool. The rats use extra-maze visual cues to locate the position of a submerged platform over a series of trials. The MWM test was conducted beginning at day 14 after traumatic brain injury. Rats were acclimated to the test room at least 1 hour prior to testing. The MWM consists of a circular pool (160 cm diameter×50 cm height) containing water that was made opaque with non-toxic black paint in order to hide the escape platform (see FIG. 4A). The water temperature was kept at 25±1° C. The water surface was 15 cm from the rim of the pool, and the inner wall was always carefully wiped to eliminate any local cues. The pool was located in a large room with a number of extra-maze visual cues, including highly visible geometric images (squares, triangles, circles, etc.) hung on the wall, diffuse lighting, and curtains to hide the experimenter and the awaiting rats. Behavior was tracked by a video camera hanging above the pool. Video tracking software (ANY-maze) recorded and analyzed the behavior of the animal in the pool. After training, the rats were gently dried with clean paper towels and placed in a warmed holding cage for the rats to dry before being returned to their home cage. Training: During training, the rat was placed into the water facing the wall of the pool and allowed to search for the platform. If the rat found the platform within 60 seconds, the trial was stopped, and the rat was allowed to stay on the platform for 30 seconds before being moved. If the platform was not found within 60 seconds, rats were placed on the platform for 30 sec in order to allow them time to learn the position of the platform in relation of the room's visual cues. Rats were given 4 trials a day for 4 days (days 14 to 17), with a 30 second interval between trials. The starting point was randomly rotated for every rat in each trial. Probe Trial: On the fifth day (day 18 after surgery), the rats received a probe trial. The probe test consisted of placing the animal in the pool for 60 seconds without the platform and monitoring the time spent in the four quadrants of the pool (see FIG. 4B). An animal that has learned the position of the platform will spend more time searching that target quadrant of the pool. During training, a submerged hidden target platform is placed in the pool and this region is defined as the target quadrant (see FIG. 4A). During the probe trial, the platform is removed and the duration of swimming in the different quadrants is tracked by the video camera and computer. […]

[2] = day 18 following surgery, 30 mg/kg vs saline

CC(NC(=O)C(CCC(=O)O)NC(=O)CCCCC1CCSS1)C(=O)O [CMX-2043, N—(R)-lipoyl-glutamylalanine]
Mitochondrial ROS (mtROS) generation ([1]; contralateral): 5.13±1.67 H2O2/(μmol O2/s*mg)
Mitochondrial ROS (mtROS) generation ([1]; ipsilateral): 8.28±1.47 H2O2/(μmol O2/s*mg)
Improvement in escape latency relative to Day 1 (rat model of focal TBI; Day 2 of training): 4.9 s
Improvement in escape latency relative to Day 1 (rat model of focal TBI; Day 3 of training): 8.7 s
Improvement in escape latency relative to Day 1 (rat model of focal TBI; Day 4 of training, significantly better than saline): 24.2 s
Morris water maze escape latency (rat model of focal TBI; day 1 of training): longer latency times than saline treated animals
Probe trial number of entries into the platform zone (rat model of focal TBI; [2]): did not reveal a significant difference
Probe trial time spent in the target quadrant (rat model of focal TBI; [2]): did not show an overall difference
Morris water maze escape latency (rat model of focal TBI; final training day): significantly faster escape latency
Morris water maze escape latency (rat model of focal TBI; training days 2 and 3): no differences between groups
Morris water maze swim distance (rat model of focal TBI; training, 30 mg/kg vs saline): no difference
Morris water maze swim speed (rat model of focal TBI; training, 30 mg/kg vs saline): no difference
